Experimental findings from US7586023B1, “Methods of conferring ppo-inhibiting herbicide resistance to plants by gene manipulation” (Sumitomo Chemical Company, Limited, priority 1996, dated 2009) are described below.

For data set [1], the system named is Chlamydomonas reinhardtii GB-2951. As to the kind of experiment: Herbicide resistance test of GB-2951 grown in TAP liquid media with various concentrations of the compounds. Format: cell-based. To be noted: compared with wild type strain CC-125. On the procedure:
Resistance of GB-2951 to several herbicides was tested by growing the strain in TAP liquid media containing various concentration of the compounds, according to the method described by Shibata et al. (Research in Photosynthesis, Vol III, pp. 567-570, Murata ed., c. 1992 by Kluwer Academic Publisher, Dordrecht, Netherlands). […] Moreover, GB-2951 was crossed to wild type strain CC-124 and several sets of tetrads were isolated according to the method as described by Harris (Harris, E. H., The Chlamydomonas Sourcebook, c. 1989 by Academic Press, San Diego, Calif.). All tetrads segregated two herbicide (compound A) sensitive and two herbicide-resistant progeny. In addition, tetrads from a cross of GB-2951 to RS-322, a porphyria herbicide-resistant isolate from a cross of RS-3 and CC-124, yielded no herbicide-sensitive progeny.

The test system of data set [2] is crop plants transformed with the herbicide-resistant PPO gene. As to the kind of experiment: Weed control test, crop phytotoxicity in greenhouse. The format is in vivo. To be noted: 100 g/ha; either method (soil surface after sowing, 27 days; sprayed onto plants at 18 days, 20 days). The method, then: (§1) Flats with an area of 33×23 cm^2 and a depth of 11 cm are filled with upland field soil. Seeds of crop plants with herbicide-resistant PPO genes developed according to methods similar to those described in Example 16 are planted along with those of weeds such as Echinochloa crus-galli, Abutilon theophrasti and Ipomoea hederacea, and covered with 1-2 cm soil. Compounds of formulae 20 and 22 (wherein R is an ethyl group) of an amount of equivalent to 100 g/ha are dissolved in 20 volumes of a mixture of surfactant and liquid carrier, such as a mixture of calcium dodecylbenzenesulfonate/polyoxyethylene styrylphenyl ether/xylene/cyclohexanone=1:2:4:8 (v/v), and diluted with water of a volume equivalent to 10 L/ha, then sprayed on surface of the soil immediately after sowing. Test plants are grown in a greenhouse for 27 days after treatment to observe weed control activity and crop phytotoxicity of the test compounds.
Seeds of the aforementioned crop plants with herbicide-resistant PPO genes are planted along with those of weeds such as Echinochloa crus-galli, Abutilon theophrasti and Ipomoea hederacea, covered with soil of 1-2 cm deep, and the plants grown for 18 days in the greenhouse. […]

A further data set concerns Ipomoea hederacea. Put plainly: Weed control test in greenhouse. Format: in vivo. The settings on record: 100 g/ha; either method (soil surface after sowing, 27 days; sprayed onto plants at 18 days, 20 days). The method, then:
as §1
(§2) Seeds of the aforementioned crop plants with herbicide-resistant PPO genes are planted along with those of weeds such as Echinochloa crus-galli, Abutilon theophrasti and Ipomoea hederacea, covered with soil of 1-2 cm deep, and the plants grown for 18 days in the greenhouse. Compounds of formulae 20 and 22 (wherein R is an ethyl group) of an amount of equivalent to 100 g/ha are dissolved in 20 volumes of a mixture of surfactant and liquid carrier, such as the mixture of calcium dodecylbenzenesulfonate/polyoxyethylene styrylphenyl ether/xylene/cyclohexanone=1:2:4:8 (v/v), and diluted with water of a volume equivalent to 10 L/ha, then sprayed onto plants from the above. Test plants are grown in a greenhouse for 20 days after treatment for observation of weed control activity and crop phytotoxicity by test compounds.

The subject of the next data set is Abutilon theophrasti. Put plainly: Weed control test in greenhouse. Format: in vivo. The settings on record: 100 g/ha; either method (soil surface after sowing, 27 days; sprayed onto plants at 18 days, 20 days). The method, then: as §1, §2
A further data set deals with Echinochloa crus-galli. Put plainly: Weed control test in greenhouse. The format is in vivo. To be noted: 100 g/ha; either method (soil surface after sowing, 27 days; sprayed onto plants at 18 days, 20 days). On the procedure: as §1, §2
Data set [3] has as its system E. coli strains with the cDNA encoding a herbicide-sensitive PPO (sensitive transformants). Put plainly: Colony formation of herbicide-sensitive E. coli SASX38 transformants on LB+ampicillin agar with compound. Format: cell-based. To be noted: particular concentration of Compound A, two days, compared to medium lacking Compound A. The text has this:
(§3) The plasmid vector containing the cDNA encoding a herbicide-sensitive PPO enzyme obtained in Example 2 or 9 is introduced into the mutant SASX38 strain of E. coli in which the endogenous the PPO gene (hemG locus) is deleted and herbicide-sensitive transformants are selected by the method in Example 2. Similarly, a cDNA encoding a herbicide-resistant PPO is obtained according to the method in Example 12, with a base pair alteration at the position of Val13 in SEQ. ID. NO.: 1, SEQ. ID. NO.: 2 and SEQ. ID. NO.: 3 resulting in the substitution of methionine for valine. Said cDNA is re-cloned in the plasmid vector pUC118 (Nishimura et al., J. Biol. Chem. 270: 8076 (1995)), and said plasmid vector is introduced into E. coli SASX38 to obtain herbicide-resistant transformants. Both sensitive and resistant transformants are separately plated on LB+ ampicillin agar medium supplemented with compound A at a given concentration, and incubated for two days. Colony formation is then evaluated to assess the growth of the sensitive and resistant transformants in the presence of the herbicide. […]

Data set [4] deals with E. coli strains with a cDNA encoding a herbicide-resistant PPO (resistant transformants). Put plainly: Colony formation of herbicide-resistant E. coli SASX38 transformants on LB+ampicillin agar with compound. The format is cell-based. To be noted: same concentration of Compound A, compared to medium free of Compound A.
Source text: as §3

For the molecule `COC(=O)c1cc(Oc2ccc(C(F)(F)F)cc2Cl)ccc1[N+](=O)[O-]` [acifluorfen-methyl], the “resistance or sensitivity of GB-2951 to the herbicide” value (shortened to “resistance or sensitivity”) in data set [1] is given as “showed resistance”.

Turning to `CC(C)OC(=O)c1cc(-n2c(=O)cc(C(F)(F)F)n(C)c2=O)ccc1Cl` [formula 20], the crop phytotoxicity result in data set [2] is recorded as “no significant phytotoxicity”. Besides, the “weed control activity (growth)” value in the data set with Ipomoea hederacea, in the data set on Abutilon theophrasti and in the data set with Echinochloa crus-galli was “inhibited” throughout.

Consider `C#CCOc1cc(N2C(=O)C3=C(CCCC3)C2=O)c(F)cc1Cl` [compound A, [N-(4-chloro-2-fluoro-5-propargyloxy)phenyl-]3,4,5,6-tetrahydrophthalimide], for which the “growth of sensitive transformants” value in data set [3] is “strongly suppressed”. In data set [1], the “resistance or sensitivity” value is recorded as “showed resistance”. The “growth of resistant transformants” value in data set [4] is reported as “same level of growth”.

With `CN(C)C(=O)Nc1ccc(Cl)c(Cl)c1` [diuron], the “resistance or sensitivity” value in data set [1] is given as “as sensitive”.

For `C[n+]1ccc(-c2cc[n+](C)cc2)cc1` [paraquat], the “resistance or sensitivity” value in data set [1] is recorded as “as sensitive”.
